A short description of experiment [1]: Ultimate tensile strength (UTS) of demineralized dentin after cross-linker treatment (Example 1). On the set-up: species or system human. The following applies: for Ultimate tensile strength, mean: pH 7.4. The text has this:
(§1) Fixation Processes: Ten sound freshly extracted human molars were used in this study. The teeth were thawed, cleaned of adhering soft tissues, and the occlusal surfaces were ground flat with #320 grit Silicon Carbide paper under running water to remove part of the enamel. Flattening of the occlusal surface by removal of the cusps enables accurate sectioning of samples in beam shape. Teeth were sectioned into 0.5±0.1 by 0.5±0.1 mm thick beams (n=20 beams per tooth) with a slow speed diamond wafering blade (Buehler-Series 15LC Diamond, Lake Bluff, Ill., USA) under constant water coolant (FIG. 1A).
(§2) The slabs were randomly divided into two groups: 1) undemineralized dentin and 2) demineralized dentin (FIG. 1A). In Group 2, dentin beams were immersed in 10% phosphoric acid solution (Fisher Scientific, New Jersey, N.J.) for a period of 5 hours. X-rays were taken from the specimens to verify complete tissue demineralization. Specimens were thoroughly rinsed with distilled water for 10 minutes to remove any residue of the phosphoric acid.
(§3) Specimens from groups 1 and 2 were subdivided according to the dentin treatment (FIG. 1B). In Treatment A, specimens were immersed in PBS solution (pH: 7.4) as a control. In Treatment B, specimens were immersed in 0.5% Proanthocyanidin (MegaNatural—Polyphenolics Ind.) PBS solution (PA) at a pH of 7.4. In Treatment C, specimens were immersed in 0.625% Genipin (Wako Pure Chemical Ind.) PBS solution (GE) at a pH of 7.4. In Treatment D, specimens were immersed in 5% glutaraldehyde solution (GD) (Fisher Scientific, New Jersey, N.J.) at a pH of 7.4. Specimens were kept in their respective solutions for 4 and 40 hours at room temperature. After the incubation periods, specimens were thoroughly rinsed with distilled and deionized water to remove any remains of cross-linking agents and buffer.
(§4) UTS testing: For UTS evaluation, the specimens were glued with a cyanoacrylate adhesive (Zapit—Dental Ventures of America Inc., Corona, Calif.) to a Ciucchi's jig, which was mounted on a universal testing machine (EZ Test, Shimazu Co., Kyoto, Japan) and subjected to microtensile testing at a crosshead speed of 1 mm/min (FIG. 1C). Means and standard deviations were calculated and expressed in microtensile bond strengths (MPa). Statistical analysis was performed using a two-way ANOVA and Fisher's PLSD tests (p<0.05).

Experiment [2] in a line: Ultimate tensile strength (UTS) of undemineralized (mineralized) dentin after cross-linker treatment (Example 1). Conditions: 0.625% GE or 5% GD; for Ultimate tensile strength, mean: pH 7.4. Further details: species or system human.
Description: as §1, §2, §3, §4

For `COC(=O)C1=CO[C@@H](O)[C@@H]2C(CO)=CC[C@H]12` [GE, genipin], the “Ultimate tensile strength, mean” value in experiment [1] (4 hours in 0.5% PA, 0.625% GE or 5% GD) stood at 11.0 MPa; in experiment [1] (40 hours in 0.5% PA, 0.625% GE or 5% GD), 18.2 MPa; in experiment [2] (4 hours in 0.5% PA), 84.2 MPa; in experiment [2] (40 hours in 0.5% PA), 94.2 MPa. For the same molecule, the “increase in the UTS values” in experiment [1] (40 hours treatment, versus control) is listed as “approximately 80%”. Besides, the “Ultimate tensile strength, pooled data” value in experiment [1] (pooled over 4 and 40 hours, 0.5% PA, 0.625% GE or 5% GD) worked out at 14.6 B MPa; in experiment [2] (pooled over 4 and 40 hours, 0.5% PA), 89.2 A MPa. For the same molecule, the “UTS values compared to the control group (statistics)” value in experiment [1] (two-way ANOVA, Fisher's PLSD) is on record as “statistically significant increase”.

Source of the values: patent US20090123581A1, “COLLAGEN CROSS-LINKING AGENTS ON DENTAL RESTORATIVE TREATMENT AND PREVENTIVE DENTISTRY” (THE BOARD OF TRUSTEES OF THE UNIVERSITY OF ILLINOIS, priority 2006, published 2009).
